Assay results from publication PMC3685270 (Clinical pharmacology and therapeutics, 2011).
≈ marks a conversion by molar mass, not a printed value. Entries after “also recorded” stand apart in the source; their conditions may differ. Like-named read-outs stand apart in the source and are kept apart here.

How the values were obtained:
Pgp at the human BBB [1] = assay: [^11C]-N-desmethyl-loperamide PET after tariquidar in healthy human subjects; type: in vivo; settings: humans, without tariquidar
[2] = molecular target: T1, P-glycoprotein (Pgp) at the blood-brain barrier (Homo sapiens, UniProt P08183); type: in vivo; settings: for EC50: tariquidar plasma concentration at end of PET scan
T1 sequence (P08183 whole entry): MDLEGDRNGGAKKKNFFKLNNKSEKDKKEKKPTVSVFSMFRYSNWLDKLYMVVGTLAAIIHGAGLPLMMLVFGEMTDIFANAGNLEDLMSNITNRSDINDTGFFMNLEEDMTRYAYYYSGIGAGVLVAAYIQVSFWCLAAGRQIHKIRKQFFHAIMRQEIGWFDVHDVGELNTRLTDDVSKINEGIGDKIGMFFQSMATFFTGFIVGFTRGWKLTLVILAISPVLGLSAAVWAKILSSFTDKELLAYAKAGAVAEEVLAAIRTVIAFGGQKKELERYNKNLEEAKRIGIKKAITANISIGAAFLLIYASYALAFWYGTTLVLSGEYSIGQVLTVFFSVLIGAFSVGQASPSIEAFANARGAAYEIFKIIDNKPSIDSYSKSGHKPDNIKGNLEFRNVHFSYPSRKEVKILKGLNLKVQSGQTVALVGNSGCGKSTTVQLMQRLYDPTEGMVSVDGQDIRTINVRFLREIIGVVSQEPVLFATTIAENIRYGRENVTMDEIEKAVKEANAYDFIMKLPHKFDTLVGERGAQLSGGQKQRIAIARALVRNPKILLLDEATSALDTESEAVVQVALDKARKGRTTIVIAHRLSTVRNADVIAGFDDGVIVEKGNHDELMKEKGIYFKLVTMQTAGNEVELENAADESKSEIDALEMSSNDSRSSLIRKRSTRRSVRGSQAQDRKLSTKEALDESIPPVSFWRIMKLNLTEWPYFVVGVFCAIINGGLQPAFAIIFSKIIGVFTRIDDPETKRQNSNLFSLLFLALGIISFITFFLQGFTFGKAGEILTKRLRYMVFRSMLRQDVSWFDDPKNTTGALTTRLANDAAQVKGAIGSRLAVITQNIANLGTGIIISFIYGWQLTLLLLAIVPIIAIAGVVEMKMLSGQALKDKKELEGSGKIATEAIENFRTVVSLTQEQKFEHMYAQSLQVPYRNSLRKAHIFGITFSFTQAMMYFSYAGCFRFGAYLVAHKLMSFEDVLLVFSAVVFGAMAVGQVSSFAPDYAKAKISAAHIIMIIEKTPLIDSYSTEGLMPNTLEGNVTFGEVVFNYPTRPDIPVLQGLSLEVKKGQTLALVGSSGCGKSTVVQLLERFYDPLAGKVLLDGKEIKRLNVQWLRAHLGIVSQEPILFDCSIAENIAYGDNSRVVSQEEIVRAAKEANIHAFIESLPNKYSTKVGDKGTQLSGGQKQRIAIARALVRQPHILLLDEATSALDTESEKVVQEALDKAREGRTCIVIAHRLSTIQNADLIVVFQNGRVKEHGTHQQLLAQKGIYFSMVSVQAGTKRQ

[3] = type: in vivo, human; settings: humans, maximum administered dose 8 mg/kg
[4] = Safety monitoring / adverse events after tariquidar infusion; type: in vivo, human; settings: for Tolerability: healthy subjects, 3, 4, 6 and 8 mg/kg i.v. infusion
Unmetabolized = type: in vivo, human; settings: AUC 0-40 min, different tariquidar doses vs 0 mg/kg
[5] = molecular target: T1, P-glycoprotein (Pgp) at the blood-brain barrier; settings: (R)-[^11C]verapamil whole brain, tariquidar 2 mg/kg, n=5, cited from earlier work
[6] = system: P-glycoprotein (Pgp) at the blood-brain barrier; settings: cited from earlier work
[7] = humans; cited from earlier work
[8] = rats, bolus administration of 30 mg/kg; cited from earlier work
[9] = system: Pgp in CD56-positive lymphocytes; settings: single i.v. dose of 2 mg/kg, over 24 h; cited from earlier work
Pgp at the human BBB [10] = settings: 2 mg/kg dose; cited from earlier work
[11] = previous studies (human and rat); cited from earlier work
[12] = system: breast cancer resistance protein (BCRP, ABCG2); settings: cited from earlier work
[13] = rat, tariquidar plasma concentration at end of PET scan, 0-60 min

Question: Which “Baseline brain uptake lower as compared to (R)-[^11C]verapamil” value (Pgp at the human BBB [1]) does the source give for `CNC(=O)C(CCN1CCC(O)(c2ccc(Cl)cc2)CC1)(c1ccccc1)c1ccccc1` [[^11C]-N-desmethyl-loperamide] here?
Answer: 2 fold

Question: Which EC50 ([2]; EC50, K1–K1 baseline (1T2K), human, 0-10 min) does the source give for `COc1cc2c(cc1OC)CN(CCc1ccc(NC(=O)c3cc(OC)c(OC)cc3NC(=O)c3cnc4ccccc4c3)cc1)CC2` [tariquidar] here?
Answer: 0.806 µM

Question: And the EC50 ([2]; EC50, K1–K1 baseline (2T4K), human, 0-40 min)?
Answer: 0.813 µM

Question: And the EC50 ([2]; EC50, VT–VT baseline (2T4K), human, 0-40 min)?
Answer: 0.867 µM

Question: And the “n (Hill coefficient), K1–K1 baseline (1T2K)” value ([2]; human, 0-10 min)?
Answer: 6.2±3.5

Question: And the “n (Hill coefficient), K1–K1 baseline (2T4K)” value ([2]; human, 0-40 min)?
Answer: 6.3±3.5

Question: And the “n (Hill coefficient), VT–VT baseline (2T4K)” value ([2]; human, 0-40 min)?
Answer: 11.3±5.4

Question: What about the “Tariquidar plasma concentration at which brain VT approached plateau levels” value ([2]; humans) of the same compound?
Answer: > 1,000 ng/mL

Question: What about the “Tariquidar plasma concentration at time of PET” value [3] of the same compound?
Answer: up to 1,312 ng/mL

Question: What about the Hypotension adverse event ([4]; 8 mg/kg group, infusion stopped 20 min prematurely (7.2 mg/kg administered)) of the same compound?
Answer: one case of moderate hypotension

Question: What about the Tolerability [4] of the same compound?
Answer: well tolerated at doses 4-times the clinically tried

Question: And the Tolerability ([4]; listed as Tariquidar)?
Answer: generally well tolerated

Question: And the “Dysgeusia (relationship with study drug could not be excluded)” value ([4]; healthy subjects, 3-8 mg/kg)?
Answer: 6 out of 20

Question: And the “Vertigo (relationship with study drug could not be excluded)” value ([4]; healthy subjects, 3-8 mg/kg, 20 subjects)?
Answer: 3 subjects

Question: And the “Effect on concentration of unmetabolized (R)-[^11C]verapamil in plasma” value (Unmetabolized)?
Answer: lacked pharmacokinetic interactions; also recorded: did not affect

Question: What about the “K1 (1T2K)” value ([5]; 0-10 min) of the same compound?
Answer: 0.051±0.006 (6) mL·mL^−1·min^−1

Question: And the “K1 (2T4K)” value ([5]; 0-40 min)?
Answer: 0.051±0.008 (11) mL·mL^−1·min^−1

Question: And the “VT (2T4K)” value ([5]; 0-40 min)?
Answer: 0.788±0.087 (2) mL·mL^−1

Question: And the “k2 (2T4K)” value ([5]; 0-40 min)?
Answer: 0.123±0.052 (57) min^−1

Question: And the “k3 (2T4K)” value ([5]; 0-40 min)?
Answer: 0.156±0.080 (123) min^−1

Question: What about the “k4 (2T4K)” value ([5]; 0-40 min) of the same compound?
Answer: 0.191±0.063 (42) min^−1

Question: And the “EC50, K1–K1 baseline (2T4K)” value [6, 13]?
Answer: 0.441 ± 0.081 µg/mL (≈ 0.682 µM)

Question: And the “EC50, VT–VT baseline (2T4K)” value [6, 13]?
Answer: 0.544 ± 0.032 µg/mL (≈ 0.841 µM)

Question: And the “Tariquidar plasma concentration at which brain VT approached plateau levels” value ([6]; rats)?
Answer: > 1,000 ng/mL

Question: And the “Terminal elimination half-life from plasma” value [7]?
Answer: 13 to 23 h

Question: And the “Tariquidar plasma concentration at the time of the PET scan” value [8]?
Answer: up to 7,000 ng/mL

Question: And the “Block of Pgp in CD56-positive lymphocytes” value [9]?
Answer: 100%

Question: What about the “Increase in brain penetration of [^11C]-N-desmethyl-loperamide” value (Pgp at the human BBB [10]) of the same compound?
Answer: 25%

Question: And the “Effect of tariquidar on degree of plasma protein binding of (R)-[^11C]verapamil” value [11]?
Answer: does not influence

Question: What about the “Inhibition of BCRP” value [12] of the same compound?
Answer: inhibits
